# In US10913727B2, “Modulators of the integrated stress pathway” (Calico Life Sciences LLC, priority 2016, dated 2021):
# System: HEK293T cells carrying the ATF4 luciferase reporter
# Experiment: ATF4-Luc assay, in vitro model of Vanishing Cell White Matter Disease (VWMD)
# Assay type: cell-based
# Settings: Homo sapiens, HEK-293T, 1 μg/mL tunicamycin, 7 hours, One Glo luminescence
# How it was run: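 Stable HEK293T line with human ATF4 5′-UTR–firefly luciferase reporter treated with 1 μg/mL tunicamycin plus 200 nM compound for 7 h. Luminescence read; EC50 derived.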
row,SMILES,EC50 [µM]
1,"O=C(COc1ccc(Cl)c(Cl)c1)NC12CC(NC(=O)c3cccnc3)(C1)C2 [Compound 456, N-{3-[2-(3,4-dichlorophenoxy)acetamido]bicyclo[1.1.1]pentan-1-yl}pyridine-3-carboxamide]",0.05 to 0.25
2,"O=C(COc1ccc2c(c1)OC(F)(F)O2)NC12CC(NC(=O)c3cccnc3)(C1)C2 [Compound 457, N-(3-{2-[(2,2-difluoro-2H-1,3-benzodioxol-5-yl)oxy]acetamido}bicyclo[1.1.1]pentan-1-yl)pyridine-3-carboxamide]",0.25 to 1
3,"O=C(COc1ccc2c(c1)OC(F)(F)O2)NC12CC(NC(=O)c3ccc(OC(F)F)nc3)(C1)C2 [Compound 458, N-(3-{2-[(2,2-difluoro-2H-1,3-benzodioxol-5-yl)oxy]acetamido}bicyclo[1.1.1]pentan-1-yl)-6-(difluoromethoxy)pyridine-3-carboxamide]",0.05 to 0.25
4,"Cc1cc(C(=O)NC23CC(NC(=O)COc4ccc(Cl)c(F)c4)(C2)C3)n(CC(C)(C)O)n1 [Compound 459, N-{3-[2-(4-chloro-3-fluorophenoxy)acetamido]bicyclo[1.1.1]pentan-1-yl}-1-(2-hydroxy-2-methylpropyl)-3-methyl-1H-pyrazole-5-carboxamide]",> 2
5,"Cc1cc(C(=O)NC23CC(NC(=O)COc4ccc(Cl)c(Cl)c4)(C2)C3)n(CC(C)(C)O)n1 [Compound 460, N-{3-[2-(3,4-dichlorophenoxy)acetamido]bicyclo[1.1.1]pentan-1-yl}-1-(2-hydroxy-2-methylpropyl)-3-methyl-1H-pyrazole-5-carboxamide]",> 2
6,"Cc1cc(C(=O)NC23CCC(NC(=O)COc4ccc(F)c(F)c4)(CC2)C(=O)C3)on1 [Compound 461, N-{4-[2-(3,4-difluorophenoxy)acetamido]-3-oxobicyclo[2.2.2]octan-1-yl}-3-methyl-1,2-oxazole-5-carboxamide]",1 to 2
7,"Cc1cc(C(=O)NC23CCC(NC(=O)COc4ccc(F)c(F)c4)(CC2)C(O)C3)on1 (stereo not drawn) [Compound 462, N-{4-[2-(3,4-difluorophenoxy)acetamido]-3-hydroxybicyclo[2.2.2]octan-1-yl}-3-methyl-1,2-oxazole-5-carboxamide]",0.25 to 1
8,"Cc1cn2ccnc(NC34CC(NC(=O)COc5ccc(Cl)c(F)c5)(C3)C4)c2n1 [Compound 463, 2-(4-chloro-3-fluorophenoxy)-N-{3-[(2-methylimidazo[1,2-a]pyrazin-8-yl)amino]bicyclo[1.1.1]pentan-1-yl}acetamide]",0.05 to 0.25
9,"O=C(COc1ccc(Cl)c(F)c1)NC12CCC(Nc3nccn4cnnc34)(CC1)[C@H](O)C2 [Compound 464, 2-(4-chloro-3-fluorophenoxy)-N-{(3R)-3-hydroxy-4-[([1,2,4]triazolo[4,3-a]pyrazin-8-yl)amino]bicyclo[2.2.2]octan-1-yl}acetamide]",> 2
10,"Cc1nnc2c(NC34CC(NC(=O)COc5ccc(Cl)c(F)c5)(C3)C4)nccn12 [Compound 465, 2-(4-chloro-3-fluorophenoxy)-N-{3-[(3-methyl[1,2,4]triazolo[4,3-a]pyrazin-8-yl)amino]bicyclo[1.1.1]pentan-1-yl}acetamide]",> 2
11,"O=C(COc1ccc(Cl)c(F)c1)NC12CCC(NC(=O)c3csc(C(F)(F)F)n3)(CC1)CC2O (stereo not drawn) [Compound 466, N-{4-[2-(4-chloro-3-fluorophenoxy)acetamido]-3-hydroxybicyclo[2.2.2]octan-1-yl}-2-(trifluoromethyl)-1,3-thiazole-4-carboxamide]",< 0.05
12,"Cc1nc(C(=O)NC23CCC(NC(=O)COc4ccc(Cl)c(F)c4)(CC2)C(O)C3)co1 (stereo not drawn) [Compound 467, N-{4-[2-(4-chloro-3-fluorophenoxy)acetamido]-3-hydroxybicyclo[2.2.2]octan-1-yl}-2-methyl-1,3-oxazole-4-carboxamide]",0.05 to 0.25
13,"Cc1cc(C(=O)NC23CCC(NC(=O)COc4ccc(Cl)c(F)c4)(CC2)C(O)C3)nn1C (stereo not drawn) [Compound 468, N-{4-[2-(4-chloro-3-fluorophenoxy)acetamido]-3-hydroxybicyclo[2.2.2]octan-1-yl}-1,5-dimethyl-1H-pyrazole-3-carboxamide]",0.25 to 1
14,"Cc1cnc(C(=O)NC23CC(NC(=O)COc4ccc(Cl)c(F)c4)(C2)C3)s1 [Compound 469, N-{3-[2-(4-chloro-3-fluorophenoxy)acetamido]bicyclo[1.1.1]pentan-1-yl}-5-methyl-1,3-thiazole-2-carboxamide]",0.25 to 1
15,"Cc1nc(C(=O)NC23CC(NC(=O)COc4ccc(Cl)c(F)c4)(C2)C3)sc1C [Compound 470, N-{3-[2-(4-chloro-3-fluorophenoxy)acetamido]bicyclo[1.1.1]pentan-1-yl}-4,5-dimethyl-1,3-thiazole-2-carboxamide]",0.05 to 0.25
16,"Cc1ncc(C(=O)NC23CCC(NC(=O)COc4ccc(Cl)c(F)c4)(CC2)C(O)C3)s1 (stereo not drawn) [Compound 471, N-{4-[2-(4-chloro-3-fluorophenoxy)acetamido]-3-hydroxybicyclo[2.2.2]octan-1-yl}-2-methyl-1,3-thiazole-5-carboxamide]",0.05 to 0.25
17,"Cc1nc(C(=O)NC23CCC(NC(=O)COc4ccc(Cl)c(F)c4)(CC2)C(O)C3)c(C)o1 (stereo not drawn) [Compound 472, N-{4-[2-(4-chloro-3-fluorophenoxy)acetamido]-3-hydroxybicyclo[2.2.2]octan-1-yl}-2,5-dimethyl-1,3-oxazole-4-carboxamide]",0.25 to 1
18,"Cc1nc(C(=O)NC23CCC(NC(=O)COc4ccc(Cl)c(F)c4)(CC2)C(O)C3)cs1 (stereo not drawn) [Compound 473, N-{4-[2-(4-chloro-3-fluorophenoxy)acetamido]-3-hydroxybicyclo[2.2.2]octan-1-yl}-2-methyl-1,3-thiazole-4-carboxamide]",0.05 to 0.25
19,"Cc1cc(C(=O)NC23CCC(NC(=O)COc4ccc(Cl)c(F)c4)(CC2)C(O)C3)oc1C (stereo not drawn) [Compound 474, N-{4-[2-(4-chloro-3-fluorophenoxy)acetamido]-3-hydroxybicyclo[2.2.2]octan-1-yl}-4,5-dimethylfuran-2-carboxamide]",0.05 to 0.25
20,"O=C(COc1ccc(C(F)F)c(F)c1)NC12CC(NC(=O)c3cnc(C(F)F)cn3)(C1)C2 [Compound 475, 5-(difluoromethyl)-N-(3-{2-[4-(difluoromethyl)-3-fluorophenoxy]acetamido}bicyclo[1.1.1]pentan-1-yl)pyrazine-2-carboxamide]",0.05 to 0.25
21,"CC(O)c1ncc(C(=O)NC23CC(NC(=O)COc4ccc(Cl)c(F)c4)(C2)C3)s1 (stereo not drawn) [Compound 476, N-{3-[2-(4-chloro-3-fluorophenoxy)acetamido]bicyclo[1.1.1]pentan-1-yl}-2-(1-hydroxyethyl)-1,3-thiazole-5-carboxamide]",0.25 to 1
22,"O=C(COc1ccc(Cl)c(F)c1)NC12CCC(NC(=O)c3cccnc3)(C1)C2 [Compound 477, N-{4-[2-(4-chloro-3-fluorophenoxy)acetamido]bicyclo[2.1.1]hexan-1-yl}pyridine-3-carboxamide]",1 to 2
23,"Cc1cnc(C(=O)NC23CC(NC(=O)COc4ccc(Cl)c(F)c4)(C2)C3)o1 [Compound 478, N-{3-[2-(4-chloro-3-fluorophenoxy)acetamido]bicyclo[1.1.1]pentan-1-yl}-5-methyl-1,3-oxazole-2-carboxamide]",0.05 to 0.25
24,"CCc1noc(C(=O)NC23CC(NC(=O)COc4ccc(Cl)c(F)c4)(C2)C3)n1 [Compound 479, N-{3-[2-(4-chloro-3-fluorophenoxy)acetamido]bicyclo[1.1.1]pentan-1-yl}-3-ethyl-1,2,4-oxadiazole-5-carboxamide]",0.05 to 0.25
